From patent US12527788B2, “Defining RNA-small molecule affinity landscapes enables design of a small molecule inhibitor of an oncogenic non-coding RNA” (University of Florida Research Foundation, Incorporated, priority 2017, dated 2026)

Experiments:
[1] = target: AT-rich DNA hairpin; test: In solution fluorescence-based binding affinity measurement
Text: It has been difficult to identify compounds that are heterocyclic in nature that selectively recognize RNA over DNA.^5 Thus, to further gain insight into the selectivity of our RNA motif-small molecule interactions, we compared the measured affinities for selected RNA motifs to the affinities of the ligands for an AT-rich DNA hairpin, a common target of small molecules similar to those shown in FIG. 1. […] This alteration reduces DNA affinity because key stacking and hydrogen bonding interactions are not possible. […] Thus, the interactions selected via 2DCS are RNA-selective.
(§1) Binding Affinity Measurements: An in solution, fluorescence-based assay was used to determine binding affinities by monitoring the change in fluorescence intensity of 1-FL (or 2-FL/3-FL/4-FL) as a function of RNA concentration as described previously.^18 Briefly, the RNA of interest was folded in 1× Folding Buffer (8 mM Na2HPO4, pH 7.0, 185 mM NaCl and 1 mM EDTA) by heating at 60° C. for 5 min followed by slowly cooling to room temperature on the bench top. Then, the FL-conjugated compound was added into the RNA solution to a final concentration of 100 nM. Serial dilutions were then completed using 1× Folding Buffer supplemented with 100 nM FL-conjugated compound. The solutions were incubated at room temperature for 30 min and then transferred to a well of a black 384-well plate. Fluorescence intensity was measured using a Bio-Tek FL×800 plate reader with an excitation wavelength of 485/20 nm and an emission wavelength of 528/20 nm. The change in fluorescence intensity as a function of the concentration of RNA was fit to equation 3:^9 I=I0+0.5 Δε{([FL]0+[RNA]0 +Kd)−(([FL]0+[RNA]0+Kd)^2−4[FL]0[RNA]0)^1/2} (3) where I is the observed fluorescence intensity; I0 is the fluorescence intensity in the absence of RNA; Δε is the difference between the fluorescence intensity in the absence of RNA and in the presence of infinite RNA concentration; [FL]0 is the concentration of compound; [RNA]0 is the concentration of the selected RNA; and Kd is the dissociation constant.

[2] = target: RNA1 (5′G_U/3′CUA U bulge of Dicer sites in miR-17, -18a and -20a); test: Fluorescence-based binding affinity measurement; parameters: species or system human
Protocol: (§2) FIG. 7: Secondary structures of the nucleic acids to which the binding of small molecule 4 was assessed. […] RNA1 contains the U bulge present in the Dicer processing site common to miR-17, -18a and -20a. RNA2 contains the A bulge that is present in miR-18a. RNA3 contains the G bulge present in miR-17 and miR-20a. Binding affinities (Kd's) are indicated in parentheses and are reported in micromolar.
(§3) Mutation of the U bulge to an AU pair (RNAC) eliminates binding (Kd>100 μM).
as §1

[3] = target: RNA2 (A bulge of the miR-18a precursor); test: Fluorescence-based binding affinity measurement; parameters: species or system human
Protocol: as §2, §3, §1

[4] = target: RNA3 (G bulge of the miR-17 and miR-20a precursors); test: Fluorescence-based binding affinity measurement; parameters: species or system human
Protocol: as §2, §3, §1

[5] = tested on: motif in the Dicer site of miR-19a; test: Fluorescence-based binding affinity measurement; parameters: species or system human; conditions: miR-19a Dicer site motif
Protocol: as §3, §1

[6] = tested on: motif in the Dicer site of miR-19b; test: Fluorescence-based binding affinity measurement; parameters: species or system human; conditions: miR-19b Dicer site motif
Protocol: as §3, §1

[7] = tested on: motif in the Dicer site of miR-92a; test: Fluorescence-based binding affinity measurement; parameters: species or system human; conditions: miR-92a Dicer site motif
Protocol: as §3, §1

[8] = target: 4IL1 RNA; test: Competitive binding assay with 4-FL; conditions: RNA 4IL1, competitive binding with 4-FL; read-out: Binding affinity
Protocol: (§4) Competitive binding assays were completed by incubating the RNA of interest with 100 nM 4-FL and increasing concentrations of 4. The resulting curves were fit to equation 4:
(§5) [formula] where θ is the percentage of 4-FL bound, [4-FL] is the concentration of 4-FL, Kt is the dissociation constant of RNA and 4-FL, [RNA] is the concentration of RNA, Ct is the concentration of 4, Kd is the dissociation constant for 4, and A is a constant.

[9] = target: 4IL8 RNA; test: Competitive binding assay with 4-FL; conditions: RNA 4IL8, competitive binding with 4-FL; read-out: Binding affinity
Protocol: as §4, §5

[10] = tested on: pre-miR-17; test: Chem-CLIP in DU145 cell lysates; type: binding, human; conditions: 10 μM, DU145 cell lysate
Protocol: (§6) Chem-CLIP in Cell Lysates: DU145 cells were cultured as described above in 100 mm dishes and lysed with 500 μL of Cell Lysis Buffer (10 mM Tris pH 7.4, 0.25% Igepal CA-630 and 150 mM NaCl) for 5 min at room temperature. The cell lysate was then centrifuged and the supernatant collected. Next, 10 μM of 4 was added to the lysate in 1×PBS and the sample was incubated for 2 h at room temperature. The reaction was then directly used for pull-down by incubating with 50 μL of streptavidin resin in 1×PBS for 30 min at room temperature. […] RNA was eluted from the streptavidin beads by incubation with 100 μL of 1× Elution Buffer (10 mM EDTA and 95% formamide) at 65° C. for 20 min. The eluted RNA was cleaned up using a Quick-RNA Miniprep Kit (Zymo) per the manufacturer's protocol. RT-qPCR was completed as described above using 50 ng of total RNA in the RT reaction. Expression levels were normalized to 18S rRNA.

[11] = tested on: pre-miR-18a; test: Chem-CLIP in DU145 cell lysates; type: binding, human; conditions: 10 μM, DU145 cell lysate
Protocol: as §6

[12] = tested on: pre-miR-20a; test: Chem-CLIP in DU145 cell lysates; type: binding, human; conditions: 10 μM, DU145 cell lysate
Protocol: as §6

Kd [1]: > 100 µM
Kd [2]: 30 ± 2 µM
Kd [3]: 32 ± 5 µM
Kd [4]: 40 ± 6 µM
Saturable binding [5]: No saturable binding
Saturable binding [6]: No saturable binding
Saturable binding [7]: No saturable binding
Kd [8]: 5.5 ± 1.3 µM
Kd [9]: 7.5 ± 0.6 µM
Compound: CN1CCN(c2ccc(-c3ccc4nc(-c5cc(C(C)(C)C)c(OCCCC(=O)NCCCN=[N+]=[N-])c(C(C)(C)C)c5)[nH]c4c3)cc2)CC1 [Compound 4]
Enrichment in pulled-down fraction [10]: ~2 fold
Enrichment in pulled-down fraction [11]: ~4 fold
Enrichment in pulled-down fraction [12]: ~2 fold
